The record followed here is patent publication US11618747B2, “LXR modulators with bicyclic core moiety” (OrsoBio, Inc., priority 2018, dated 2023).

Test [1] concerns the target T1, LXRβ ligand-binding domain (Homo sapiens, UniProt P55055, DUP175-175).
T1 construct: amino acids 156-461; NP009052; made in house; host or cells: E. coli
T1 sequence (P55055 with tags, fused parts or gaps DUP175-175 limits assumed): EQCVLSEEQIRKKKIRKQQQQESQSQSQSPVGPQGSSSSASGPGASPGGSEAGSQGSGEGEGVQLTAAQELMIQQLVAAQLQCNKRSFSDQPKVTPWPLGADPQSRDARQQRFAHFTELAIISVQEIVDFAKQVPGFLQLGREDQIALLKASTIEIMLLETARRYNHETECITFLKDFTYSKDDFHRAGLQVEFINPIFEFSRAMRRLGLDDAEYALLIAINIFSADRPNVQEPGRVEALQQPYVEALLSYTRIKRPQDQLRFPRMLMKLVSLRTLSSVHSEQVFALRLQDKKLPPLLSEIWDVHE
As to the kind of experiment: TR-FRETβ activity assay (NCoA3 coactivator peptide recruitment). Type of test: biochemical. The settings on record: TR-FRET, 1 μM 24(S)-25-epoxycholesterol prestimulation; read-out: FRETβ (EC50 range). In short, it runs like this:
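Inverse agonism assessed by loss of coactivator recruitment, read as TR-FRET 665/615 nm after 1 h equilibration at 4 °C, in triplicate. Ten-point titration from 50 μM to 0.002 μM against LXRβ LBD (76 nM, GST fusion) prestimulated with 1 μM 24(S)-25-epoxycholesterol, with 400 nM NCoA3 peptide, pH 6.8. Sulfonyl acetic acids kept as 20 mM DMSO stocks with 100 mM TFA.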

Test [2] has as its target T2, ligand-binding domain (LBD) of LXRα (Homo sapiens, UniProt Q13133).
T2 construct: expressed in transfected cells; host or cells: HEK293
T2 sequence (Q13133 155-447): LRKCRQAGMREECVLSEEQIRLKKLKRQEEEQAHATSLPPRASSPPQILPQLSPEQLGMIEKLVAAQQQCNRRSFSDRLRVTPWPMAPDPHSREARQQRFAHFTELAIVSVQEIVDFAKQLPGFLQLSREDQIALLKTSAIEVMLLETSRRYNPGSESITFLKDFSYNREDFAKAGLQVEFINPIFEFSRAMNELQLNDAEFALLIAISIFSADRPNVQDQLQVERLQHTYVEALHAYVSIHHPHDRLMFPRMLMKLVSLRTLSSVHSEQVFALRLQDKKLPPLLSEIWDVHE
As to the kind of experiment: LXR Gal4 reporter transient transfection assay (LBD-M2H Gal4α). Type of test: cell-based. The settings on record: HEK293 cells, LXRα LBD; read-out: LBD-M2H Gal4α (EC50 range). The method, then:
(§1) The tested compounds were usually dissolved, tested and stored as 20 mM stock solutions in DMSO. Since sulfonyl acetic acid derivatives tend to decarboxylate under these conditions, these stock solutions were prepared, tested and stored as 20 mM DMSO stock solutions containing 100 mM trifluoroacetic Acid (5 equivalents). Sulfonyl acetic acid derivatives are shelf stable as solid at rt for long time as reported by Griesbrecht et al. (Synlett 2010:374) or Faucher et al. (J. Med. Chem. 2004; 47:18).
(§2) LXR Gal4 Reporter Transient Transfection Assays
(§3) LXRα and LXRβ activity status was determined via detection of interaction with coactivator and corepressor proteins in mammalian two-hybrid experiments (M2H). For this, via transient transfection the full length (FL) proteins of LXRα (amino acids 1-447; NP005684; SEQ ID NO:1) or LXRβ-(amino acids 1-461; NP009052; SEQ ID NO:2) or the ligand-binding domains (LBD) of LXRα (amino acids 155-447 SEQ ID NO:3) or LXRβ (amino acids 156-461; SEQ ID NO:4) were expressed from pCMV-AD (Stratagene) as fusions to the transcriptional activation domain of NFkB. As cofactors, domains of either the steroid receptor coactivator 1 (SRC1; amino acids 552-887; SEQ ID NO:5) or of the corepressor NCoR (amino acids 1906-2312; NP006302; SEQ ID NO:6) were expressed as fusions to the DNA binding domain of the yeast transcription factor GAL4 (from pCMV-BD; Stratagene). Interaction was monitored via activation of a coexpressed Firefly Luciferase Reporter gene under control of a promoter containing repetitive GAL4 response elements (vector pFRLuc; Stratagene). Transfection efficiency was controlled via cotransfection of constitutively active pRL-CMV Renila reniformis luciferase reporter (Promega). HEK293 cells were grown in minimum essential medium (MEM) with 2 mM L-glutamine and Earle's balanced salt solution supplemented with 8.3% fetal bovine serum, 0.1 mM non-essential amino acids, 1 mM sodium pyruvate, at 37° C. in 5% CO2. 3.5×10^4 cells/well were plated in 96-well cell culture plates in growth medium supplemented with 8.3% fetal bovine serum for 16-20 h to ˜90% confluency. For transfection, medium was taken off and LXR and cofactor expressing plasmids as well as the reporter plasmids are added in 30 μL OPTIMEM/well including polyethylene-imine (PEI) as vehicle. Typical amounts of plasmids transfected/well: pCMV-AD-LXR (5 ng), pCMV-BD-cofactor (5 ng), pFR-Luc (100 ng), pRL-CMV (0.5 ng). Compound stocks were prepared in DMSO, prediluted in MEM to a total volume of 120 μL, and added 4 h after addition of the transfection mixture (final vehicle concentration not exceeding 0.2%). Cells were incubated for additional 16 h, lysed for 10 min in 1× Passive Lysis Buffer (Promega) and Firefly and Renilla luciferase activities were measured sequentially in the same cell extract using buffers containing D-luciferine and coelenterazine, respectively. Measurements of luminescence were done in a BMG-luminometer.

Test [3] addresses T3, ligand-binding domain (LBD) of LXRβ (Homo sapiens, UniProt P55055, DUP175-175).
T3 construct: LXRβ (amino acids 156-461); expressed in transfected cells; host or cells: HEK293
T3 sequence (P55055 with tags, fused parts or gaps DUP175-175 limits assumed): T1 sequence (P55055 with tags, fused parts or gaps DUP175-175 limits assumed)
As to the kind of experiment: LXR Gal4 reporter transient transfection assay (LBD-M2H Gal4β). Type of test: cell-based. To be noted: HEK293 cells, LXRβ LBD; read-out: LBD-M2H Gal4β (EC50 range). The method, then:
as §1, §2, §3

Take `Cc1ncc(S(=O)(=O)n2c(-c3ccccc3)c(-c3ccsc3C#N)c3ccccc32)s1` [1/42]: the half-maximal effective concentration (EC50) is 1 to 10 µM in test [1], < 0.1 µM in test [2] and < 0.1 µM in test [3].
`Cn1cnc(S(=O)(=O)n2c(-c3cccs3)c(-c3ccsc3C#N)c3ccccc32)c1` [1/28]: the 50% effective concentration (EC50) was 1 to 10 µM in test [1], 0.1 to 1 µM in test [2] and < 0.1 µM in test [3].
Taken in the same sequence, the figures for `N#Cc1nccnc1-c1c(-c2cccs2)n(S(=O)(=O)c2ccc(Cl)cc2)c2ccccc12` [20/7] were 1 to 10 µM, 0.1 to 1 µM and < 0.1 µM.
On to `N#Cc1sccc1-c1c(-c2cccs2)n(S(=O)(=O)c2ccc(Cl)cc2)c2ccc(OCC(=O)O)cc12` [Example 15, 2-((1-((4-Chlorophenyl)sulfonyl)-3-(2-cyanothiophen-3-yl)-2-(thiophen-2-yl)-1H-indol-5-yl)oxy)acetic Acid], for which the concentration for a half-maximal effect (EC50) in test [1] and in test [3] was > 10 µM in each case.
For the compound `N#Cc1sccc1-c1c(-c2ccccc2)n(S(=O)(=O)c2ccc(OCC(=O)O)cc2)c2ccccc12` [Example 27, 2-(4-((3-(2-Cyanothiophen-3-yl)-2-phenyl-1-H-indol-1-yl)sulfonyl)phenoxy)acetic Acid], the results for the EC50 in test [1] and in test [3] were 1 to 10 µM and 0.1 to 1 µM, respectively.
Turning to `N#Cc1sccc1-c1c(-c2ccccc2)n(S(=O)(=O)c2cccnc2)c2ccccc12` [1/41], the values for the EC50 in test [1], in test [2] and in test [3] were 1 to 10 µM, 0.1 to 1 µM and < 0.1 µM, respectively.
For `O=S(=O)(c1ccc(Cl)cc1)n1c(-c2cccs2)c(-c2ccsc2Cl)c2ccccc21` [Example 20, 1-((4-Chlorophenyl)sulfonyl)-3-(2-chlorothiophen-3-yl)-2-(thiophen-2-yl)-1H-indole], the results for the half-maximal effective concentration (EC50) in test [1] and in test [3] were 0.1 to 1 µM and < 0.1 µM, respectively.
The like results for `N#Cc1sccc1-c1c(-c2cccs2)n(S(=O)(=O)c2ccc(Cl)cc2)c2ccc(O)cc12` [Example 13, 3-(1-((4-Chlorophenyl)sulfonyl)-5-hydroxy-2-(thiophen-2-yl)-1t-indol-3-yl)thiophene-2-carbonitrile] were, in that order, 0.1 to 1 µM and < 0.1 µM.
In the case of `COc1ccc(S(=O)(=O)n2c(-c3ccc(CCC(=O)O)cc3)c(-c3ccsc3C#N)c3ccccc32)cc1` [15/6], the EC50 is 1 to 10 µM in test [1] and 0.1 to 1 µM in test [3].
Consider `N#Cc1ccncc1-c1c(-c2cccs2)n(S(=O)(=O)c2ccc(Cl)cc2)c2ccccc12` [20/2], for which the figures for the EC50 in test [1], in test [2] and in test [3] were 1 to 10 µM, 0.1 to 1 µM and < 0.1 µM, respectively.
For the compound `COc1ccc(S(=O)(=O)n2c(-c3cccs3)c(-c3ccsc3C#N)c3ccccc32)cc1` [20/14], the half-maximal effective concentration (EC50) in test [1] is 0.1 to 1 µM; in test [3], < 0.1 µM.
`COc1ccc(S(=O)(=O)n2c(-c3ccc(CCC(N)=O)cc3)c(-c3ccsc3C#N)c3ccccc32)cc1` [Example 28, 3-(4-(3-(2-Cyanothiophen-3-yl)-1-((4-methoxyphenyl)sulfonyl)-1H-indol-2-yl)phenyl)propan-amide]: the 50% effective concentration (EC50) in test [1] was in the range of 1 to 10 µM; in test [3], 0.1 to 1 µM.
The like results for `N#Cc1sccc1-c1c(-c2cncs2)n(S(=O)(=O)c2ccc(Cl)cc2)c2ccccc12` [Example 25] were, in that order, 1 to 10 µM and < 0.1 µM.
In the case of `N#Cc1sccc1-c1c(-c2cccs2)n(S(=O)(=O)c2ccc(Cl)cc2)c2ccc(C(=O)O)cc12` [Example 23, 1-((4-Chlorophenyl)sulfonyl)-3-(2-cyanothiophen-3-yl)-2-(thiophen-2-yl)-1H-indole-5-carboxylic Acid], the EC50 in test [1] is > 10 µM; in test [3], 0.1 to 1 µM.
The like results for `Cc1ccc(S(=O)(=O)n2c(-c3cccc(-c4cccc(C(=O)NS(C)(=O)=O)c4)c3)c(-c3ccsc3C#N)c3ccccc32)cc1` [Example 32, 3′-(3-(2-Cyanothiophen-3-yl)-1-tosyl-1H-indol-2-yl)-N-(methylsulfonyl)-[1,1′-biphenyl]-3-carboxamide] were, in that order, 0.1 to 1 µM and 0.1 to 1 µM.
Taken in the same sequence, the figures for `COC(=O)CCc1ccc(S(=O)(=O)n2c(-c3cccs3)c(-c3ccsc3C#N)c3ccccc32)cc1` [20/15] were 0.1 to 1 µM and 0.1 to 1 µM.
As for `COc1ccc(S(=O)(=O)n2c(-c3ccccc3)c(-c3cc4ccccc4nc3C#N)c3ccccc32)cc1` [20/17], the concentration for a half-maximal effect (EC50) in test [3] was in the range of 0.1 to 1 µM.
On to `COc1ccc2c(c1)c(-c1ccsc1C#N)c(-c1cccs1)n2S(=O)(=O)c1ccc(Cl)cc1` [1/39], for which the concentration giving a half-maximal response (EC50) in test [1] is > 10 µM; in test [2], 1 to 10 µM.
With `COc1ccc(S(=O)(=O)n2c(-c3ccccc3)c(-c3c(C#N)sc4ccccc34)c3ccccc32)cc1` [20/18], the figures for the EC50 in test [2] and in test [3] were 0.1 to 1 µM and < 0.1 µM, respectively.
As to `N#Cc1sccc1-c1c(-c2cccs2)n(S(=O)(=O)c2ccc(CCC(=O)O)cc2)c2ccccc12` [23/1], the EC50 in test [1] is 1 to 10 µM; in test [3] it was < 0.1 µM.
The like results for `Cc1cccc(S(=O)(=O)n2c(-c3cccc(N4CC(C(=O)O)C4)c3)c(-c3ccsc3C#N)c3cc(F)ccc32)c1` [3/8] were, in that order, 1 to 10 µM and < 0.1 µM.
The like results for `N#Cc1sccc1-c1c(-c2cccs2)n(S(=O)(=O)c2ccc(Cl)cc2)c2cc(CCC(=O)O)c(O)cc12` [Example 17, 3-(1-((4-Chlorophenyl)sulfonyl)-3-(2-cyanothiophen-3-yl)-5-hydroxy-2-(thiophen-2-yl)-1H-indol-6-yl)propanoic Acid] were, in that order, > 10 µM and 1 to 10 µM.
The like results for `Cc1ccc(S(=O)(=O)n2c(-c3cccc(C4CC4C(=O)O)c3)c(-c3ccsc3C#N)c3ccccc32)cc1` (racemic) [Example 30, rac-(1R,2R)-2-(3-(3-(2-Cyanothiophen-3-yl)-1-tosyl-1H-indol-2-yl)phenyl)cyclopropane-1-carboxylic Acid] were, in that order, 0.1 to 1 µM and < 0.1 µM.
With `Cc1ccc(S(=O)(=O)n2c(-c3cccc(-c4cncc(C(C)(C)C(=O)O)c4)c3)c(-c3ccsc3C#N)c3ccccc32)cc1` [30/3], the EC50 in test [2] and in test [3] was 0.1 to 1 µM throughout.
Consider `O=C(O)c1sccc1-c1c(-c2cccs2)n(S(=O)(=O)c2ccc(Cl)cc2)c2ccccc12` [Example 21, 3-(1-((4-Chlorophenyl)sulfonyl)-2-(thiophen-2-yl)-1H-indol-3-yl)thiophene-2-carboxylic Acid], for which the results for the EC50 in test [1] and in test [3] were > 10 µM and 1 to 10 µM, respectively.
